In ChEMBL document CHEMBL3272158, “2-Azabicyclo (2.2.2)octane analogues of the prodine analgetics” (J Med Chem, 1976):
Activity calls are given as the source filed them. The calls are words filed in the database; no cut-off is given here.

Tests used:
[1] = test system: Rattus norvegicus; test: Analgetic activity in albino rat at 100 mg/kg, ip measured 15 mins interval by tail-flick method; type: functional, organism-based; set-up: dose 100 mg/kg
[2] = test system: Rattus norvegicus; test: Analgetic activity in ip dosed albino rat measured 15 mins interval by tail-flick method; type: functional; conditions: 0.25 h
[3] = Toxicity in ip dosed albino rat; type: organism-based; conditions: in vivo

Compound	Activity [1]	ED50 [2] [mg/kg]	LD50 [3] [mg/kg]
CCC(=O)O[C@@]1(c2ccccc2)C[C@H]2CC[C@H]1CN2C	inactive	–	–
CCC(=O)O[C@@]1(c2ccccc2)C[C@H]2CC[C@H]1N(C)C2 (relative stereo)	inactive	3.1	12.3
CCC(=O)OC1(c2ccccc2)CCN(C)CC1C (racemic) [ALPHAPRODINE]	–	1.4	22
CCC(=O)O[C@@]1(c2ccccc2)C[C@H]2CC[C@H]1N(Cc1ccccc1)C2 (relative stereo)	inactive	–	–
CCC(=O)O[C@]1(c2ccccc2)C[C@H]2CC[C@H]1N(C)C2 (relative stereo)	inactive	–	–
